Measurements as given in ChEMBL document CHEMBL5338817, “Discovery of Exceptionally Potent, Selective, and Efficacious PROTAC Degraders of CBP and p300 Proteins” (J Med Chem, 2023).
Several values for one entry are separate records, joined by “and”; a condition that tells them apart may be missing. Equal values may be shown once. One block for each compound: values may come before it. Activity calls are given as the source filed them. No cut-off for these calls is given here.

Legend:
[1] = system: RS4-11; test: Cytotoxicity against human RS4-11 cells assessed as maximum inhibition of cell growth incubated for 4 days by cellTiter-Glo assay relative to control; format: functional; details: time 4 day
[2] = system: MV4-11; test: Cytotoxicity against human MV4-11 cells assessed as maximum inhibition of cell growth incubated for 4 days by cellTiter-Glo assay relative to control; format: functional; details: time 4 day
[3] = system: HL-60; test: Cytotoxicity against human HL-60 cells assessed as maximum inhibition of cell growth incubated for 4 days by cellTiter-Glo assay relative to control; format: functional; details: time 4 day
[4] = system: MOLM-13; test: Cytotoxicity against human MOLM-13 cells assessed as maximum inhibition of cell growth incubated for 4 days by cellTiter-Glo assay relative to control; format: functional; details: time 4 day
[5] = system: MV4-11; test: Cytotoxicity against human MV4-11 cells assessed as inhibition of cell growth incubated for 4 days by cellTiter-Glo assay; format: functional, cell-based; details: MV4-11, 96 h
[6] = system: HL-60; test: Cytotoxicity against human HL-60 cells assessed as inhibition of cell growth incubated for 4 days by cellTiter-Glo assay; format: functional, cell-based; details: HL-60, 96 h
[7] = system: MOLM-13; test: Cytotoxicity against human MOLM-13 cells assessed as inhibition of cell growth incubated for 4 days by cellTiter-Glo assay; format: functional, cell-based; details: MOLM-13, 96 h
[8] = system: RS4-11; test: Cytotoxicity against human RS4-11 cells assessed as inhibition of cell growth incubated for 4 days by cellTiter-Glo assay; format: functional, cell-based; details: RS4-11, 96 h
[9] = system: RS4-11; test: Induction of cell cycle arrest in human RS4-11 cells assessed as accumulation at G1 phase at 1 uM measured after 8 hrs by PI staining based flow cytometric analysis; format: functional
[10] = biological target: T1, CREB-binding protein (Homo sapiens, UniProt Q92793); test: Induction of CBP degradation in human RS4-11 cells at 10 nM incubated for 3 hrs by Proteomics analysis; format: cell-based
Target sequence in this assay (Q92793 2-2442 limits assumed): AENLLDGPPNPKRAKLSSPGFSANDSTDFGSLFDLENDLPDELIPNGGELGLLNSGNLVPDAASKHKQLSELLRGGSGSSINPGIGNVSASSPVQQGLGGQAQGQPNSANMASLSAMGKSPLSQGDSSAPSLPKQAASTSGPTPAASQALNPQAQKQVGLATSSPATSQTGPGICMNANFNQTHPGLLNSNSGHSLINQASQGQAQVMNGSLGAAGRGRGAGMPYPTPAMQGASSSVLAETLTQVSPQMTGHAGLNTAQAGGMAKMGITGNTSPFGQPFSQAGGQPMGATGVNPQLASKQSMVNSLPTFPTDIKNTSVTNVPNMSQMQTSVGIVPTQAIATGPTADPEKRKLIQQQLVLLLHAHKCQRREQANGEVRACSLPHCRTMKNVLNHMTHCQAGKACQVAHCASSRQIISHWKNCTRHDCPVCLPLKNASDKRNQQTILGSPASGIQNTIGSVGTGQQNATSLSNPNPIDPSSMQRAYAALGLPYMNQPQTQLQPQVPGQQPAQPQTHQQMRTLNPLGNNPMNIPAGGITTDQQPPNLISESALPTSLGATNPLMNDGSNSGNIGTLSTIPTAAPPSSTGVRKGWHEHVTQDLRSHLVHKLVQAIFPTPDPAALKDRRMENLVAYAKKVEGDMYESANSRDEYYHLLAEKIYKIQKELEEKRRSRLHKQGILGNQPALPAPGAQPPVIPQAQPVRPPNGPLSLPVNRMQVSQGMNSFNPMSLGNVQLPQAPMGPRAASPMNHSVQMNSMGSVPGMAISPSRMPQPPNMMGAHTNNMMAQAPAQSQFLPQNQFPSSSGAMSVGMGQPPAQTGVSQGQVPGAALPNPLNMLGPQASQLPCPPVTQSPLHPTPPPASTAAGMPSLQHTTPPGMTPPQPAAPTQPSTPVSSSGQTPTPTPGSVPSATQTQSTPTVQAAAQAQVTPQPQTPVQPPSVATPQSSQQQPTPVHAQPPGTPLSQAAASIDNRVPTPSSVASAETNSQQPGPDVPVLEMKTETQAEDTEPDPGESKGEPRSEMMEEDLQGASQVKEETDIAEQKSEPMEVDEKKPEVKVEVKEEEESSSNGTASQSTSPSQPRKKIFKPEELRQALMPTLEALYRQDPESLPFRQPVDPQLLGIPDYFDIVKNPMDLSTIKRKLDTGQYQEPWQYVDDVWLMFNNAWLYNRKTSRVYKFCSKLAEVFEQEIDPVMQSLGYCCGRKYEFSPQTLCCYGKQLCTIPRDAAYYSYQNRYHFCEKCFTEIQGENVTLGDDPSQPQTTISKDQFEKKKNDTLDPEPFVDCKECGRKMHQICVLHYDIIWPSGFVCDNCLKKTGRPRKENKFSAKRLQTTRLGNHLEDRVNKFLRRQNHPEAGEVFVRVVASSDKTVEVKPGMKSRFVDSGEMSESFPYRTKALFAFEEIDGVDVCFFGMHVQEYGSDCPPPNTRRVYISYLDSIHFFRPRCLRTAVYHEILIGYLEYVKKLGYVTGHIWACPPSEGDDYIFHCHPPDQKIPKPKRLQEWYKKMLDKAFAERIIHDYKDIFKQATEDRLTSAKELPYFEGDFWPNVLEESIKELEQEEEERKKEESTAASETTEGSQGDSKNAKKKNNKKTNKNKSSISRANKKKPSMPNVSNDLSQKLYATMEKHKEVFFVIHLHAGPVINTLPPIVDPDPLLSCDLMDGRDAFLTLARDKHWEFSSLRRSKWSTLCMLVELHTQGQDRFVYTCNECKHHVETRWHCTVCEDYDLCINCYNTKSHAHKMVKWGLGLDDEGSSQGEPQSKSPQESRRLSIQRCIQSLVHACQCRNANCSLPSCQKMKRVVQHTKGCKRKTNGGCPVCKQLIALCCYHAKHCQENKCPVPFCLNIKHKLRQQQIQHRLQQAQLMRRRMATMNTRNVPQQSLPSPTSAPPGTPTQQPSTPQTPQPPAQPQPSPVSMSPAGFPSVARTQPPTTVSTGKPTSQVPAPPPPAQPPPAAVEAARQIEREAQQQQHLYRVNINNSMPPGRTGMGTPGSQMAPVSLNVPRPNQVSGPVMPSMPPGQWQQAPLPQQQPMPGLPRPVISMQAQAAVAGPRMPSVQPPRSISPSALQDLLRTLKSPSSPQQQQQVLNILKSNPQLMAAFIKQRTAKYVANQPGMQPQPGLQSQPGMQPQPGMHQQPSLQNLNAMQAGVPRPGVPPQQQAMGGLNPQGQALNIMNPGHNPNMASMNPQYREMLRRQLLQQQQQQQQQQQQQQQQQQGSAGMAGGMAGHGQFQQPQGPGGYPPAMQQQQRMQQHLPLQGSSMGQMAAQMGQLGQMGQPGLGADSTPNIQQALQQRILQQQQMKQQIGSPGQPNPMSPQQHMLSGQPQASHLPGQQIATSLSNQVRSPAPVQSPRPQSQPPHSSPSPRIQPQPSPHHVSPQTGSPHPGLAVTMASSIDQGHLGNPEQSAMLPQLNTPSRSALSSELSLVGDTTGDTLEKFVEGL

[11] = system: Mus musculus; test: In vivo induction of p300 degradation in human RS4-11 cells xenografted in SCID mouse at 1 mg/kg, ip measured after 3 hrs by Western blot analysis; format: functional, organism-based
[12] = biological target: T1, CREB-binding protein; test: Induction of CBP degradation in human RS4-11 cells incubated for 4 hrs by Western blot assay; format: cell-based
[13] = biological target: T1, CREB-binding protein; test: Induction of CBP degradation in human RS4-11 cells assessed as maximal degradation incubated for 4 hrs by Western blot assay; format: cell-based
Target sequence in this assay (Q92793 2-2442 limits assumed): as above

[14] = biological target: T2, Histone acetyltransferase p300 (Homo sapiens, UniProt Q09472); test: Induction of p300 degradation in human RS4-11 cells incubated for 4 hrs by Western blot assay; format: cell-based
[15] = biological target: T2, Histone acetyltransferase p300; test: Induction of p300 degradation in human RS4-11 cells assessed as maximal degradation incubated for 4 hrs by Western blot assay relative to control; format: cell-based
[16] = biological target: T2, Histone acetyltransferase p300; test: Induction of p300 degradation in human RS4-11 cells at 10 nM incubated for 3 hrs by Proteomics analysis; format: cell-based
[17] = biological target: Non-selective voltage-gated ion channel VDAC1 (Homo sapiens) (UniProt P21796); test: Induction of VDAC1 degradation in human RS4-11 cells assessed as fold reduction in protein level at 10 nM incubated for 4 hrs by Western blot analysis; format: cell-based
[18] = biological target: Bromodomain-containing protein 4 (Homo sapiens) (UniProt O60885); test: Induction of BRD4 degradation in human RS4-11 cells at 10 nM incubated for 4 hrs by Western blot analysis; format: cell-based
[19] = biological target: T3, Non-selective voltage-gated ion channel VDAC2 (Homo sapiens) (UniProt P45880); test: Induction of VDAC2 degradation in human RS4-11 cells assessed as fold reduction in protein level at 10 nM incubated for 4 hrs by Western blot analysis; format: cell-based
T3 sequence (whole entry): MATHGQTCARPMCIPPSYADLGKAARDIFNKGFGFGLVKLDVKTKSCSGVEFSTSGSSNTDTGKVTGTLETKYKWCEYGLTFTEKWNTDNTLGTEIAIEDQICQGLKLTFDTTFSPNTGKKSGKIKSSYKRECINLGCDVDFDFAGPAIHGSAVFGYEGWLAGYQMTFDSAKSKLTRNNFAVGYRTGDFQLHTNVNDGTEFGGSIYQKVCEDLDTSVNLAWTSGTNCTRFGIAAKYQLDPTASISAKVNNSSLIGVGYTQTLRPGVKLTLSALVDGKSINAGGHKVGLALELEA

[20] = system: RS4-11; test: Downregulation of MYB gene expression in human RS4-11 cells at 1 nM measured after 8 hrs by qRT-PCR analysis; format: functional, cell-based
[21] = system: Mus musculus; test: In vivo induction of CBP degradation in human RS4-11 cells xenografted in SCID mouse at 1 mg/kg, ip measured after 3 hrs by Western blot analysis; format: functional, organism-based
[22] = system: RS4-11; test: In vivo induction of p300 degradation in human RS4-11 cells xenografted in SCID mouse at 3 mg/kg, ip measured after 3 to 6 hrs by Western blot analysis; format: functional, organism-based; details: time 3-6 hrs
[23] = system: RS4-11; test: In vivo induction of CBP degradation in human RS4-11 cells xenografted in SCID mouse at 3 mg/kg, ip measured after 3 to 6 hrs by Western blot analysis; format: functional, organism-based; details: time 3-6 hrs
[24] = system: Mus musculus; test: In vivo induction of CBP degradation in human RS4-11 cells xenografted in SCID mouse at 3 mg/kg, ip measured after 24 to 48 hrs by Western blot analysis; format: functional, organism-based; details: time 24-48 hrs
[25] = system: Mus musculus; test: In vivo induction of p300 degradation in human RS4-11 cells xenografted in SCID mouse at 3 mg/kg, ip measured after 24 to 48 hrs by Western blot analysis; format: functional, organism-based; details: time 24-48 hrs
[26] = Drug concentration in SCID mouse tumor xenografted with RS4-11 cells at 3 mg/kg, ip measured after 3 hrs by LC-HRMS method; format: ADME, organism-based, Neoplasm; details: read-out: Ct
[27] = Drug concentration in SCID mouse tumor xenografted with RS4-11 cells at 1 mg/kg, ip measured after 3 hrs by LC-HRMS method; format: ADME, organism-based, Neoplasm; details: read-out: Ct
[28] = Drug concentration in IP dosed SCID mouse tumor xenografted with RS4-11 cells measured after 24 to 48 hrs by LC-HRMS method; format: ADME, organism-based, Neoplasm; details: in vivo, time 24-48 hrs
[29] = system: RS4-11; test: Antitumor activity against human RS4-11 cells xenografted in SCID mouse assessed as tumor growth inhibition at 1 mg/kg, ip administered twice a week on day 1 and day 4 for 2 weeks relative to control; format: functional; set-up: scale not given: the % may be the effect or the level left
[30] = system: RS4-11; test: Antitumor activity against human RS4-11 cells xenografted in SCID mouse assessed as tumor growth inhibition at 3 mg/kg, ip administered once a week on day 1 for 2 weeks relative to control; format: functional; set-up: scale not given: the % may be the effect or the level left
[31] = Toxicity in SCID mouse xenografted with human RS4-11 cells assessed as body weight loss at 1 mg/kg, ip administered twice a week on day 1 and day 4 for 2 weeks relative to control; format: organism-based; details: in vivo, 336 h
[32] = Toxicity in SCID mouse xenografted with human RS4-11 cells assessed as body weight loss at 3 mg/kg, ip administered once a week on day 1 for 2 weeks relative to control; format: organism-based; details: in vivo, 336 h
[33] = system: RS4-11; test: Antitumor activity against human RS4-11 cells xenografted in SCID mouse assessed as tumor growth inhibition at 0.3 mg/kg, ip administered five days a week for 2 weeks relative to control; format: functional; set-up: scale not given: the % may be the effect or the level left
[34] = system: RS4-11; test: Antitumor activity against human RS4-11 cells xenografted in SCID mouse assessed as tumor growth inhibition at 1 mg/kg, ip administered thrice a week on day 1, 3 and 5 for 2 weeks relative to control; format: functional; set-up: scale not given: the % may be the effect or the level left
[35] = Toxicity in SCID mouse xenografted with human RS4-11 cells assessed as body weight loss at 0.3 mg/kg, ip administered five days a week for 2 weeks relative to control; format: organism-based; details: in vivo, 336 h
[36] = Toxicity in SCID mouse xenografted with human RS4-11 cells assessed as body weight loss at 1 mg/kg, ip administered three times a week for 2 weeks relative to control; format: organism-based; details: in vivo, 336 h
[37] = system: RS4-11; test: Downregulation of MYC gene expression in human RS4-11 cells at 1 nM measured after 8 hrs by qRT-PCR analysis; format: functional, cell-based

T2 sequence (Q09472 whole entry): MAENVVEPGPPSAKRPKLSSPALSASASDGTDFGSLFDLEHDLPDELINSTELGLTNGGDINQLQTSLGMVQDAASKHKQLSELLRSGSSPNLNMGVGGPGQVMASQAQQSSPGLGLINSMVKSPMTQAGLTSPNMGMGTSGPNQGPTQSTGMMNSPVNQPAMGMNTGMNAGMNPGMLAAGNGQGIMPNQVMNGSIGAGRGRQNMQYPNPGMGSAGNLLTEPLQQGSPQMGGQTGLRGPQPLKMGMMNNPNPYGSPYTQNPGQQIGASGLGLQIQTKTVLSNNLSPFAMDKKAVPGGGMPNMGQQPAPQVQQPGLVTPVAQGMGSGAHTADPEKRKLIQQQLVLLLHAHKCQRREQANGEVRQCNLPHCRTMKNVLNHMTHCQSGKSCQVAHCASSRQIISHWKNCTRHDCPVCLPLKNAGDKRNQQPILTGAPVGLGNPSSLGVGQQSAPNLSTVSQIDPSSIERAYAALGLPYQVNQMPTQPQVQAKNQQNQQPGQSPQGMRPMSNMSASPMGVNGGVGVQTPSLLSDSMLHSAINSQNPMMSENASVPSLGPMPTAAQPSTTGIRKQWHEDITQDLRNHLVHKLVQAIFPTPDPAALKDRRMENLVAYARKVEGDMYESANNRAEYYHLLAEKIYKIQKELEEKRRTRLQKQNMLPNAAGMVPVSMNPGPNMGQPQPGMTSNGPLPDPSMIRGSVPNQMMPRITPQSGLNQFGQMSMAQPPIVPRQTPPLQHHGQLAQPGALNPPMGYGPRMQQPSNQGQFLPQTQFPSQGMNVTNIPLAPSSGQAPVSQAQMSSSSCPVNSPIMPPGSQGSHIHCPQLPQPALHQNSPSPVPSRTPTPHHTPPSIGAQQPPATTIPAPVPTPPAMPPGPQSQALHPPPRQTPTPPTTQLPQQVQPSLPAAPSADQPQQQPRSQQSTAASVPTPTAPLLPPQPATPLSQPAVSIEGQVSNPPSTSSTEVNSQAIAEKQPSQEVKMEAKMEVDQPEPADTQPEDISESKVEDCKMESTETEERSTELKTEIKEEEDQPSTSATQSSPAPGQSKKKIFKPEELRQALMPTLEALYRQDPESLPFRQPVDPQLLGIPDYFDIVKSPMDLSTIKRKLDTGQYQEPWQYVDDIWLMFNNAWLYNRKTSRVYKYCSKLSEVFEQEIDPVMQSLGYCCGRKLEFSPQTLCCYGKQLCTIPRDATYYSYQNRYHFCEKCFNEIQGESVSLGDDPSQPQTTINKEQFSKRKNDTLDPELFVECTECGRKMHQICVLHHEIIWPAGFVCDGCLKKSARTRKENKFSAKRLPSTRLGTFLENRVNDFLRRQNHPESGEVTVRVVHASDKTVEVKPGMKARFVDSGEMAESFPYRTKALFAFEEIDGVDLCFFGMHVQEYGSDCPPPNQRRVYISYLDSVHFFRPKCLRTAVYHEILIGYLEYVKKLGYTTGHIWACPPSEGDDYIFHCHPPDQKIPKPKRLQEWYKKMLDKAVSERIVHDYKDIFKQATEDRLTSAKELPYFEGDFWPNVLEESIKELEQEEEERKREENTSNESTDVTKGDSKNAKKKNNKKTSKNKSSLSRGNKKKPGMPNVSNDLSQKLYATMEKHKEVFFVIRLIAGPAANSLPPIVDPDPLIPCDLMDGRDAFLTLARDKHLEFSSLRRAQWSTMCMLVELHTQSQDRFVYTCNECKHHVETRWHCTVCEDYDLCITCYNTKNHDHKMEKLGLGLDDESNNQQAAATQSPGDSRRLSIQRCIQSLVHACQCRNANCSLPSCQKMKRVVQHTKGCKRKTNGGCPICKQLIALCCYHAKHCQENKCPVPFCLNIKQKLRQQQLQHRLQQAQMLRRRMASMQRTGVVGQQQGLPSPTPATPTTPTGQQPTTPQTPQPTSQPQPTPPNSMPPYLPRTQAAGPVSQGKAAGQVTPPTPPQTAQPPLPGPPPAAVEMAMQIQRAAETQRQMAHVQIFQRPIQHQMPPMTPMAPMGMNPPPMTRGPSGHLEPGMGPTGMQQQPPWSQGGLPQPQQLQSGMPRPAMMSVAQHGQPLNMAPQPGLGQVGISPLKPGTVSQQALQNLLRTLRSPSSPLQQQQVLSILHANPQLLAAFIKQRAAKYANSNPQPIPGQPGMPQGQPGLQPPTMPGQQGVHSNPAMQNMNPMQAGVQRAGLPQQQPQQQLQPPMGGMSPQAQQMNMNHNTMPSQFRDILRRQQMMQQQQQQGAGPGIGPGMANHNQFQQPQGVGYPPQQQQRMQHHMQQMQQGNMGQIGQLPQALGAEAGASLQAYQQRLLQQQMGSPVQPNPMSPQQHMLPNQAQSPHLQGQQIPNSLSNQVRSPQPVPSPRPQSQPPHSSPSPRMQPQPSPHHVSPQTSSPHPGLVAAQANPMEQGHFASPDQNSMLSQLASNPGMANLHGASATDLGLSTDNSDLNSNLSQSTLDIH
Sequence of Non-selective voltage-gated ion channel VDAC1 (Homo sapiens) (P21796 whole entry): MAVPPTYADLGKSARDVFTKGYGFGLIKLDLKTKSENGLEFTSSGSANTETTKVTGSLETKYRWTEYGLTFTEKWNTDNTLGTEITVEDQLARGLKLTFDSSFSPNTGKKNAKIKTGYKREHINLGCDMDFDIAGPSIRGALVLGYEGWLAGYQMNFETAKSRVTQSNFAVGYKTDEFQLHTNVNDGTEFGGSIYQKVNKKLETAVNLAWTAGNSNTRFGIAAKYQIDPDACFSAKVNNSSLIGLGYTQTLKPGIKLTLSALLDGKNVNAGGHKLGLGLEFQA

SMILES: CNC(=O)c1ccc(-c2cc3cccc(-c4nn(C5CCOCC5)c5c4CN(C(C)=O)CC5)c3cn2)cn1
- Imax [1]: 75%
- Imax [2]: 94%
- Imax [3]: 99%
- Imax [4]: 98%

SMILES: CNC(=O)Nc1ccc2c(c1)CC[C@]21CN(CC(=O)N(Cc2ccc(F)cc2)[C@H](C)C(F)(F)F)C(=O)O1
- Imax ([1]; 96 h): 93.5% and 89% and 99%
- Imax [2]: 94%
- IC50 [5]: 156 nM
- IC50 [6]: 152 nM
- Imax [3]: 99%
- IC50 [7]: 239 nM
- Imax [4]: 96%

SMILES: CO[C@H]1CC[C@@H](n2c(C3CCCC(=O)N3c3ccc(F)c(F)c3)nc3cc(-c4c(C)noc4C)ccc32)CC1 (stereo partly drawn)
- Imax [1]: 99.8%
- IC50 [8]: 544 nM
- Imax [2]: 98%
- IC50 [5]: 51.6 nM
- IC50 [6]: 30 nM
- Imax [3]: 99%
- IC50 [7]: 23 nM
- Imax [4]: 99%
- Activity [9]: Active

- Activity [10]: Active
- EC50 [12]: 0.05 nM
- Emax [13]: 99%
- EC50 [14]: 0.2 nM
- Emax [15]: 99%
- Activity [16]: Active
- fold change (FC) [17]: 2
- Activity [18]: inactive
- fold change (FC) [19]: 2
- concentration at 3 h [26]: 240 ng/g
- concentration at 3 h [27]: 57.5 ng/g
- Drug uptake [28]: Not Active
SMILES: CC(=O)N1CCc2c(c(-c3cccc4cc(-c5ccc(C(=O)NC6CCN(c7ccc8c(c7)CN(C7CCC(=O)NC7=O)C8=O)CC6)nc5)ncc34)nn2C2CCOCC2)C1 (stereo not drawn)
- Activity [11]: Active
- Imax [1]: 94%
- IC50 [8]: 0.1 nM
- Imax [2]: 99%
- IC50 [5]: 0.04 nM
- IC50 [6]: 0.54 nM
- Imax [3]: 96%
- IC50 [7]: 2.3 nM
- Imax [4]: 96%
- Activity [9]: Active
- Activity [20]: Active
- Activity [21]: Active
- Activity [22]: Active
- Activity [23]: Active
- Activity [24]: inactive
- Activity [25]: inactive
- Activity [29]: 81%
- Activity [30]: 81%
- Activity [31]: < 10%
- Activity [32]: < 10%
- Activity [33]: 68%
- Activity [34]: 68%
- Activity [35]: < 3%
- Activity [36]: < 3%
- Activity [37]: Active

- EC50 [12]: 4.8 nM
- Emax [13]: 81%
- EC50 [14]: 25 nM
- Emax [15]: 62%
SMILES: CC(=O)N1CCc2c(c(-c3cccc4cc(-c5ccc(C(=O)N6CC7(CCC(Nc8cccc9c8C(=O)N(C8CCC(=O)NC8=O)C9=O)CC7)C6)nc5)ncc34)nn2C2CCOCC2)C1 (stereo not drawn)
- Imax [1]: 75%
- IC50 [8]: 44 nM
